Reference: patent publication US5364764A, “Fluorescent chloramphenicol derivatives for determination of chloramphenicol acetyltransferase activity” (Molecular Probes, Inc., priority 1992, dated 1994)

What was measured:
[1] = Solubility in aqueous and nonaqueous solvents; type: physicochemical; conditions: compared with the corresponding fluorescein derivative 36
[2] = molecular target: T1, purified CAT (chloramphenicol acetyltransferase) (Escherichia coli, UniProt P62577); assay: Procedure for comparing activity of fluorescent substrates (TLC, conversion to acetylated products); type: biochemical; conditions: 0.8 U purified CAT, acetyl CoA, 1M TRIS pH 7.4, 37° C., 1 hour
T1 construct: the pSV2cat reporter type
T1 sequence (P62577 whole entry, looked up): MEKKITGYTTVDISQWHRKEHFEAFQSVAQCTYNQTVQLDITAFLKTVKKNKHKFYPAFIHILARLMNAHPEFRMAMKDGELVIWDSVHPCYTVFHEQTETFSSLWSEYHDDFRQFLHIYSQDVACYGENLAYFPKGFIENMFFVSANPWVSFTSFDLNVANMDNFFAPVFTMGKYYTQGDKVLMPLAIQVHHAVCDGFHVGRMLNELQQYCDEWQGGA
Experimental: To a solution of 0.5 mg acetyl CoA in 112 μL of 1M TRIS pH 7.4 was added 7 μL of a solution of 440 μM fluorescent CAT substrate in ethanol. Then 0.8 U of purified CAT in 1 μL of 1 M TRIS (pH 7.4) was added and the solution was incubated at 37° C. for 1 hour. The reaction mixture was extracted with 0.7 mL of ethyl acetate, and the solvent was removed under vacuum. The residue was dissolved in 14 μL of ethyl acetate, spotted on the pre-absorbent area of Whatman LK6 silica-gel TLC plates and developed with 10% methanol in chloroform. A control, run as above but with no enzyme present, was spotted adjacent to each reaction mixture.
Qualitative estimates of substrate activity of each fluorescent derivative were made by examination of the plates for conversion to acetylated products.

[3] = molecular target: T1, purified CAT (chloramphenicol acetyltransferase); assay: Relative velocity vs chloramphenicol; type: biochemical; conditions: first ten minutes, substrate 33.2 μM, TRIS pH 7.4, 0.4 mg Acetyl CoA, 0.8U purified enzyme
Experimental: The velocity during the first ten minutes at a substrate concentration of 33.2 μM was determined using Compound 6 and ^14 C chloramphenicol. The reactions were run in 100 μL final volume TRIS pH 7.4 with 0.4 mg of Acetyl CoA and 0.8U of purified enzyme. The concentrations of acetylated products after ten minutes were determined by extraction from the TLC plates and measuring spectrophotometrically, in the case of Compound 6, and by counting radioactivity in the case of ^14 C chloramphenicol. The velocity during the first ten minutes was assumed to be very close to Vmax. The velocity of Compound 6 was 0.66 of the velocity of ^14 C chloramphenicol.

[4] = test system: chloramphenicol acetyltransferase (CAT); conditions: reported by Shaw et al., J. Biol. Chem. 242(4):687 (1967); read-out: Km (Michaelis-Menten constant) for chloramphenicol; cited from earlier work

## CC(=O)Nc1ccc([C@@H](O)[C@@H](CO)NC(=O)CCCNC(=O)CC2=CC(C)=[N+]3C2=Cc2c(C)cc(C)n2[B-]3(F)F)cc1 [Compound 6]
[1]
  Solubility in ethyl acetate: much more soluble in ethyl acetate
[2]
  Qualitative estimate of substrate activity (reaction velocity, conversion to acetylated products): highest reaction velocities
[3]
  Velocity relative to the velocity of 14C chloramphenicol: 0.66

## CN(C)c1ccc2c(CC(=O)NCCCC(=O)N[C@H](CO)[C@H](O)c3ccc([N+](=O)[O-])cc3)cc(=O)oc2c1 [Compound 21]
[2]
  Qualitative estimate of substrate activity (reaction velocity, conversion to acetylated products): highest reaction velocities

## CC(=O)Nc1ccc([C@@H](O)[C@@H](CO)NC(=O)CCCNC(=O)Cc2cc(=O)oc3cc(N(C)C)ccc23)cc1 [Compound 23]
[2]
  Qualitative estimate of substrate activity (reaction velocity, conversion to acetylated products): highest reaction velocities

## Nc1ccc([C@@H](O)[C@@H](CO)NC(=O)CCCCCNc2ccc([N+](=O)[O-])c3nonc23)cc1 [Compound 28]
[2]
  Qualitative estimate of substrate activity (reaction velocity, conversion to acetylated products): highest reaction velocities

## O=C(N[C@H](CO)[C@H](O)c1ccc([N+](=O)[O-])cc1)C(Cl)Cl [chloramphenicol]
[4]
  Km: ~15 µM
